Measurements from ChEMBL document CHEMBL1201862, “PubChem BioAssay data set” (2004).
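1) Cells in 96-well plates. 2) Compound, 48 h, 5 concentrations. 3) Linear interpolation between surrounding doses. 4) Unreached endpoint = highest concentration. Here, GI50 denotes the concentration required for 50% inhibition of growth.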 The source made the active and inactive calls. Rule as the data show it: active = GI50 up to about 1.1 µM and inactive = higher.

Key:
Assay in all cases: NCI anticancer screen, dose series, 48 h
SK-MEL-28 = test system: SK-MEL-28
SR = test system: SR
MOLT-4 = test system: MOLT-4
OVCAR-8 = test system: OVCAR-8
SF-268 = test system: SF-268
HT-29 = test system: HT-29
NCI-H460 = test system: NCI-H460
A498 = test system: A498
HCT-15 = test system: HCT-15
OVCAR-5 = test system: OVCAR-5
LXFL 529 = test system: LXFL 529
SF-539 = test system: SF-539
SK-MEL-5 = test system: SK-MEL-5
IGROV-1 = test system: IGROV-1
M19-MEL = test system: M19-MEL
OVCAR-4 = test system: OVCAR-4
UO-31 = test system: UO-31
SF-295 = test system: SF-295
SN12C = test system: SN12C
CCRF-CEM = test system: CCRF-CEM
COLO 205 = test system: COLO 205
EKVX = test system: EKVX
NCI-H226 = test system: NCI-H226
HCC 2998 = test system: HCC 2998
CAKI-1 = test system: CAKI-1
DLD-1 = test system: DLD-1
SNB-19 = test system: SNB-19
KM12 = test system: KM12
HOP-18 = test system: HOP-18
NCI-H522 = test system: NCI-H522
SW-620 = test system: SW-620
M14 = test system: M14
UACC-62 = test system: UACC-62
K562 = test system: K562
RPMI-8226 = test system: RPMI-8226
OVCAR-3 = test system: OVCAR-3
SNB-75 = test system: SNB-75
DMS-114 = test system: DMS-114
HOP-92 = test system: HOP-92
TK-10 = test system: TK-10
Malme-3M = test system: Malme-3M
A549 = test system: A549
U-251 = test system: U-251
NCI-H23 = test system: NCI-H23
SK-MEL-2 = test system: SK-MEL-2
SNB-78 = test system: SNB-78
HCT-116 = test system: HCT-116
RXF 393 = test system: RXF 393
ACHN = test system: ACHN
HL-60 = test system: HL-60
SK-OV-3 = test system: SK-OV-3
KM-20L2 = test system: KM-20L2
LOX IMVI = test system: LOX IMVI
786-0 = test system: 786-0
HOP-62 = test system: HOP-62
UACC-257 = test system: UACC-257
DMS-273 = test system: DMS-273
NCI/ADR-RES = test system: NCI/ADR-RES
MDA-N = test system: MDA-N
T47D = test system: T47D
MDA-MB-231 = test system: MDA-MB-231
MDA-MB-435 = test system: MDA-MB-435
MCF7 = test system: MCF7
XF498 = test system: XF498
PC-3 = test system: PC-3
DU-145 = test system: DU-145
BT-549 = test system: BT-549
Hs-578T = test system: Hs-578T

C[C@@H](O)CCC(=O)c1ccoc1
GI50 (SK-MEL-28): > 100 µM (inactive) | GI50 (SR): > 84.3 µM (inactive) | GI50 (MOLT-4): > 100 µM (inactive) | GI50 (OVCAR-8): > 100 µM (inactive) | GI50 (SF-268): > 100 µM (inactive) | GI50 (HT-29): > 100 µM (inactive) | GI50 (NCI-H460): > 100 µM (inactive) | GI50 (A498): > 100 µM (inactive) | GI50 (HCT-15): > 100 µM | GI50 (OVCAR-5): > 100 µM (inactive) | GI50 (LXFL 529): > 100 µM (inactive) | GI50 (SF-539): > 100 µM (inactive) | GI50 (SK-MEL-5): > 100 µM (inactive) | GI50 (IGROV-1): > 100 µM (inactive) | GI50 (M19-MEL): > 100 µM (inactive) | GI50 (OVCAR-4): > 100 µM (inactive) | GI50 (UO-31): > 100 µM (inactive) | GI50 (SF-295): > 100 µM (inactive) | GI50 (SN12C): > 100 µM (inactive) | GI50 (CCRF-CEM): > 100 µM (inactive) | GI50 (COLO 205): > 100 µM (inactive) | GI50 (EKVX): > 100 µM (inactive) | GI50 (NCI-H226): > 100 µM (inactive) | GI50 (HCC 2998): > 100 µM (inactive) | GI50 (CAKI-1): > 100 µM (inactive) | GI50 (DLD-1): > 100 µM (inactive) | GI50 (SNB-19): > 100 µM (inactive) | GI50 (KM12): > 100 µM (inactive) | GI50 (HOP-18): > 100 µM (inactive) | GI50 (NCI-H522): > 100 µM (inactive) | GI50 (SW-620): > 100 µM (inactive) | GI50 (M14): > 100 µM (inactive) | GI50 (UACC-62): > 100 µM (inactive) | GI50 (K562): > 100 µM (inactive) | GI50 (RPMI-8226): > 100 µM (inactive) | GI50 (OVCAR-3): > 100 µM (inactive) | GI50 (SNB-75): > 49.2 µM (inactive) | GI50 (DMS-114): > 100 µM (inactive) | GI50 (HOP-92): > 100 µM (inactive) | GI50 (TK-10): > 100 µM (inactive) | GI50 (Malme-3M): > 100 µM (inactive) | GI50 (A549): > 100 µM (inactive) | GI50 (U-251): > 100 µM (inactive) | GI50 (NCI-H23): > 100 µM (inactive) | GI50 (SK-MEL-2): > 100 µM (inactive) | GI50 (SNB-78): > 100 µM (inactive) | GI50 (HCT-116): > 100 µM (inactive) | GI50 (RXF 393): > 100 µM (inactive) | GI50 (ACHN): > 100 µM (inactive) | GI50 (HL-60): > 100 µM (inactive) | GI50 (SK-OV-3): > 100 µM (inactive) | GI50 (KM-20L2): > 100 µM (inactive) | GI50 (LOX IMVI): > 100 µM (inactive) | GI50 (786-0): > 100 µM (inactive) | GI50 (HOP-62): > 100 µM (inactive) | GI50 (UACC-257): > 100 µM (inactive) | GI50 (DMS-273): > 100 µM (inactive)

CCOC(=O)C(N)CSC(=O)NC (stereo not drawn)
GI50 (SK-MEL-28): 136 µM (inactive) | GI50 (SR): 45.1 µM (inactive) | GI50 (MOLT-4): 55.1 µM (inactive) | GI50 (OVCAR-8): 97.7 µM (inactive) | GI50 (SF-268): 115 µM (inactive) | GI50 (HT-29): 78.7 µM (inactive) | GI50 (NCI-H460): 92 µM (inactive) | GI50 (A498): 236 µM (inactive) | GI50 (HCT-15): 63 µM | GI50 (OVCAR-5): 350 µM (inactive) | GI50 (SF-539): > 83.6 µM (inactive) | GI50 (SK-MEL-5): 116 µM (inactive) | GI50 (IGROV-1): 155 µM (inactive) | GI50 (NCI/ADR-RES): 89.9 µM (inactive) | GI50 (M19-MEL): 64.6 µM (inactive) | GI50 (OVCAR-4): 219 µM (inactive) | GI50 (UO-31): 259 µM (inactive) | GI50 (SF-295): 258 µM (inactive) | GI50 (MDA-N): 39.8 µM (inactive) | GI50 (SN12C): 71.6 µM (inactive) | GI50 (T47D): 133 µM (inactive) | GI50 (CCRF-CEM): 49.3 µM (inactive) | GI50 (COLO 205): 78.5 µM (inactive) | GI50 (EKVX): 269 µM (inactive) | GI50 (NCI-H226): 247 µM (inactive) | GI50 (HCC 2998): 271 µM (inactive) | GI50 (CAKI-1): 104 µM (inactive) | GI50 (DLD-1): 130 µM (inactive) | GI50 (MDA-MB-231): 99.1 µM (inactive) | GI50 (MDA-MB-435): 45 µM (inactive) | GI50 (SNB-19): 251 µM (inactive) | GI50 (KM12): 175 µM (inactive) | GI50 (HOP-18): 357 µM (inactive) | GI50 (NCI-H522): 102 µM (inactive) | GI50 (MCF7): 93.5 µM (inactive) | GI50 (SW-620): 80.4 µM (inactive) | GI50 (M14): 67.9 µM (inactive) | GI50 (UACC-62): 81.8 µM (inactive) | GI50 (K562): 45.3 µM (inactive) | GI50 (RPMI-8226): 20.1 µM (inactive) | GI50 (OVCAR-3): 96.6 µM (inactive) | GI50 (SNB-75): 243 µM (inactive) | GI50 (DMS-114): 51.3 µM (inactive) | GI50 (HOP-92): 98.4 µM (inactive) | GI50 (TK-10): 247 µM (inactive) | GI50 (Malme-3M): 117 µM (inactive) | GI50 (XF498): 104 µM (inactive) | GI50 (A549): 327 µM (inactive) | GI50 (PC-3): 132 µM (inactive) | GI50 (DU-145): 268 µM (inactive) | GI50 (U-251): 121 µM (inactive) | GI50 (NCI-H23): 112 µM (inactive) | GI50 (SK-MEL-2): 63.2 µM (inactive) | GI50 (HCT-116): > 89.7 µM (inactive) | GI50 (RXF 393): 105 µM (inactive) | GI50 (ACHN): 184 µM (inactive) | GI50 (HL-60): 74 µM (inactive) | GI50 (SK-OV-3): 286 µM (inactive) | GI50 (KM-20L2): 171 µM (inactive) | GI50 (LOX IMVI): 40.4 µM (inactive) | GI50 (BT-549): 121 µM (inactive) | GI50 (Hs-578T): 204 µM (inactive) | GI50 (786-0): 73.6 µM (inactive) | GI50 (HOP-62): 154 µM (inactive) | GI50 (UACC-257): 208 µM (inactive) | GI50 (DMS-273): 83.6 µM (inactive)
